The source of these data is patent US10434170B2, “Immunoregulatory vaccine” (S-TARGET THERAPEUTICS GMBH, priority 2012, dated 2019).

The experiment has as its system autologous little gastrin (G17RM). As to the kind of experiment: Cynomolgus monkeys immunized, serum IgG (MSD multiplex ELISA) against autologous little gastrin. Type of experiment: in vivo, rhesus and cynomolgus monkey. To be noted: 6 Cynomolgus monkeys, immunized d0, d14, d28; serum d0-d56. The text has this:
Time curve IgG anti G17 induction, after three injections with the vaccine (TYG100_2RM) on d0, d14 and d28. • A significant IgG induction was seen against the ScFV-coil1 and G17RM and G17H. No response was seen against a control peptide of similar molecular weight or when the animals were immunized with G17RM_2 without the presence of warhead.
6 Cynomolgus monkeys were immunized with TYG100_2RM and 6 were immunized with G17RM_2-coil on d0, d14 and d28. On d0, d14, d28, 42 and d56 serum was analyzed for the presence of IgG antibodies against autologous little gastrin (G17RM), little gastrin from humans (G17H), an irrelevant control peptide of similar MW as gastrin (control peptide) or against warhead (ScFV-coil1) using the multiplex ELISA system of Meso Scale Discovery (MSD) according to the MSD manual. […] The response against G17RM after three immunizations was 75% of the response against ScFV-coil1. This is remarkable since G17RM is a 100% autologous protein of only ˜1.2 kDa whereas ScFV-coil1 is a 100% allogeneic protein of >30 kDa. The anti G17RM antibodies cross reacted strongly with G17H. There was no response against G17RM when the G17RM_2-coil peptide was used without the warhead.
Background: ELISA stands for enzyme-linked immunosorbent assay.

Where no end group is shown, it is not given here.

As to “G17RM_2-coil: SEQ ID 103: two rhesus monkey gastrin peptides of SEQ ID 99, branched linker and pepK coil (EGPWMEEEEAAYGGGK(EGPWMEEEEAAYGGG)GGSGGKVSALKEKVSALKEKVSALKEKVSALKEKVSALKE)”, the “IgG response to G17RM” value is given as “no response”.
